Laboratory results as given in patent US6962713B2, “Spot-on formulations for combating parasites” (Merial, priority 1919, dated 2005).
Values joined by “and” are separate entries in the source; they are usually repeats but may differ in a detail not shown here. Equal values may be shown once. Marks after values point to notes of the source that are not given here.

Key:
[1] = Plasma kinetics of ivermectin after spot-on application 250 μg.kg^−1 in combination with fipronil to cats; type: in vivo, cat; details: spot-on 0.25% ivermectin + 10% fipronil, 5 cats
Description: This study was undertaken in order to assess the pharmacokinetic behaviour of ivermectin after a topical (spot-on) application of a formulation containing 0.25% of ivermectin and 10% of fipronil to the cat. The formulation was as follows: […]
Five male european cats were treed with the spot-on formulation at a dose of 0.1 ml.kg^−1 (i.e. 250 μg.kg^−1 of ivermectin and 10 mg.kg^−1 of fipronil).
Blood samples were collected at intervals up to 42 days post-treatment.
The determination of ivermectin in cat plasma was carried out by a validated HPLC method using fluorescence detection, with a limit of quantification of 100 pg.ml^−1.

[2] = system: heartworms; details: Cardomec oral, 6 μg.kg^−1 of ivermectin, dog; known; cited from earlier work
[3] = Plasma kinetics of ivermectin after oral administration of Cardomec to dogs; type: in vivo, dog
Description: Five male Beagle dogs received a dose of approximately 6 μg.kg^−1 of ivermectin, i.e., one 68 μg Cardomec® tablet per dog. The animals were fasted prior to administration and up to 6 hours after treatment to prevent a possible interaction with food.
Blood samples were collected at intervals up to 28 days post-dosing. The determination of ivermectin in dog plasma was carried out by HPLC using fluorescence detection after derivatization. The limit of quantification was 100 pg.ml^−1.

[4] = Plasma kinetics of ivermectin after topical (spot-on) application 250 μg.kg in combination with fipronil to dogs; type: in vivo, dog; details: spot-on 0.25% ivermectin + 10% fipronil, 5 dogs
Description: This study was undertaken in order to assess the pharmacokinetic behaviour of ivermectin and fipronil after a topical (spot-on) application of ivermectin in combination with fipronil to the dog.
Five male Beagle dogs were applied a spot-on formulation combining ivermectin and fipronil at a dose of 0.1 ml.kg^−1, i.e. 250 μg.kg and 10 mg.kg^−1 of ivermectin and fipronil, respectively. Blood samples were collected at intervals up to 28 days post-treatment. The determination of ivermectin in dog plasma was carried out by HPLC, using fluorescence detection, with a limit of quantification of 100 pg.ml^−1. The determination of fipronil and its sulfone metabolite (RM1602) was carried out by HPLC with UV detection with a limit of quantification of 20 ng.ml^−1 for fipronil and RM1602.
The formulation tested was as follows: […]

[5] = Plasma kinetics of ivermectin after spot-on application at different doses in combination with fipronil to dogs; type: in vivo, dog; details: for Cmax, Mean: spot-on with fipronil 10 mg.kg^−1, dogs, mean of 3; for t½, Mean: harmonic mean
Description: This study was undertaken in order to assess the linearity of the percutaneous passage of ivermectin after spot-on application of different doses of ivermectin (100, 250, 500 and 1000 μg.kg^−1) in combination with fipronil (10 mg.kg^−1) to the dog. Furthermore, the possibility of control both heartworms and gastro-intestinal nematodes was evaluated.
Twelve male Beagle dogs (allocated into 4 groups of 3 animals were applied spot-on formulations combining ivermectin (0.1%, 0.25%, 0.5% and 1%) and fipronil (10%) at a dose rate of 0.1 ml.kg^−1 (i.e. 100, 250, 500 and 1000 μg.kg^−1 of ivermectin and 10 mg.kg^−1 of fipronil).
The formulations are as follows: […]
The formulations were applied at one spot onto the skin between the shoulder blades.
Blood samples were collected at intervals up to 56 days post treatment.
The determination of ivermectin was carried out by HPLC after an automated solid/liquid extraction, using fluorescence detection, with limit of quantification of 100 pg.ml^−1. The determination of fipronil and its sulfone metabolite (RM1602) was carried out by HPLC with UV detection, with a limit of quantification of 20 ng.ml^−1 for fipronil and RM1602. Both methods were validated in terms of specificity, extraction recovery, linearity, precision and accuracy.

[6] = system: gastrointestinal nematodes; details: Ivomec subcutaneous, 400 μg.kg^−1 of ivermectin, dog; known; cited from earlier work
[7] = Cardomec oral 6 μg.kg^−1, 5 fasted dogs, mean
[8] = Cardomec oral 6 μg.kg^−1, 5 fasted dogs, range over dogs
[9] = Cardomec oral 6 μg.kg^−1, fasted dogs, individual dogs
[10] = spot-on with fipronil, dogs, Group I 100 μg.kg^−1 ivermectin
[11] = spot-on with fipronil, dogs, Group I 100 μg.kg^−1 ivermectin, range over dogs
[12] = spot-on with fipronil, dogs, Group II 250 μg.kg^−1 ivermectin
[13] = spot-on with fipronil, dogs, Group II 250 μg.kg^−1 ivermectin, range over dogs
[14] = spot-on with fipronil, dogs, Group III 500 μg.kg^−1 ivermectin
[15] = spot-on with fipronil, dogs, Group III 500 μg.kg^−1 ivermectin, range over dogs
[16] = spot-on with fipronil, dogs, Group IV 1000 μg.kg^−1 ivermectin
[17] = spot-on with fipronil, dogs, Group IV 1000 μg.kg^−1 ivermectin, range over dogs

Substance: ivermectin
- t1/2 β, Mean ([1]; 250 μg.kg^−1 ivermectin, harmonic mean): 9.1 d and 9.07* d
- AUC (0-Clast), Mean ([1]; 250 μg.kg^−1 ivermectin, mean): 23441 pg·days/mL
- AUC(0-∞), Mean ([1]; 250 μg.kg^−1 ivermectin, mean): 26546 pg·days/mL
- Tlast, Mean ([1]; 250 μg.kg^−1 ivermectin, mean): 35 days
- tmax, Mean ([1]; 250 μg.kg^−1 ivermectin, mean): 134 h
- AUC(0-∞), Range ([1]; 250 μg.kg^−1 ivermectin, range over cats): [14199-52232] pg.d.ml^−1
- Cmax, Mean ([1]; 0.1 ml.kg^−1 (250 μg.kg^−1 ivermectin), mean): 1.465 ng/mL
- effective on heartworms [2]: 100%
- AUC(0-t), Mean [3, 7]: 1534 pg·days/mL
- AUC(0-∞), Mean [3, 7]: 1859 pg·days/mL
- AUC, mean [3, 7]: 44.604 ng·h/mL
- Cmax, Mean [3, 7]: 1.362 ng/mL
- AUC(0-t), Range [3, 8]: [187-3246] pg.d.ml^−1
- AUC(0-∞), Range [3, 8]: [382-3789] pg.d.ml^−1
- Plasma concentrations of ivermectin, Mean ([3]; Cardomec oral 6 μg.kg^−1, fasted dogs, 0 h, mean of 5 dogs): BLQ (Below the Limit of Quantification (100 pg.ml^−1))
- Plasma concentrations of ivermectin, Mean ([3]; Cardomec oral 6 μg.kg^−1, fasted dogs, 0.75 h, mean of 5 dogs (BLQ taken as 0)): 0.119 ng/mL
- Plasma concentrations of ivermectin, Mean ([3]; Cardomec oral 6 μg.kg^−1, fasted dogs, 1.5 h, mean of 5 dogs (BLQ taken as 0)): 0.536 ng/mL
- Plasma concentrations of ivermectin ([3]; Cardomec oral 6 μg.kg^−1, fasted dogs, 2 h, individual dogs): 1132 pg.ml^−1 and 674 pg.ml^−1 and BLQ (Below the Limit of Quantification (100 pg.ml^−1)) and 1817 pg.ml^−1 and 264 pg.ml^−1
- Plasma concentrations of ivermectin, Mean ([3]; Cardomec oral 6 μg.kg^−1, fasted dogs, 2 h, mean of 5 dogs (BLQ taken as 0)): 0.777 ng/mL
- Plasma concentrations of ivermectin, Mean ([3]; Cardomec oral 6 μg.kg^−1, fasted dogs, 3 h, mean of 5 dogs): 1.199 ng/mL
- Plasma concentrations of ivermectin, Mean ([3]; Cardomec oral 6 μg.kg^−1, fasted dogs, 4 h, mean of 5 dogs): 1.098 ng/mL
- Plasma concentrations of ivermectin, Mean ([3]; Cardomec oral 6 μg.kg^−1, fasted dogs, 6 h, mean of 5 dogs): 0.956 ng/mL
- Plasma concentrations of ivermectin, Mean ([3]; Cardomec oral 6 μg.kg^−1, fasted dogs, 8 h, mean of 5 dogs): 0.769 ng/mL
- Plasma concentrations of ivermectin, Mean ([3]; Cardomec oral 6 μg.kg^−1, fasted dogs, 10 h, mean of 5 dogs): 0.798 ng/mL
- Plasma concentrations of ivermectin, Mean ([3]; Cardomec oral 6 μg.kg^−1, fasted dogs, 12 h, mean of 5 dogs): 0.783 ng/mL
- Plasma concentrations of ivermectin, Mean ([3]; Cardomec oral 6 μg.kg^−1, fasted dogs, 24 h, mean of 5 dogs): 0.525 ng/mL
- Plasma concentrations of ivermectin, Mean ([3]; Cardomec oral 6 μg.kg^−1, fasted dogs, 32 h, mean of 5 dogs (BLQ taken as 0)): 0.338 ng/mL
- Plasma concentrations of ivermectin, Mean ([3]; Cardomec oral 6 μg.kg^−1, fasted dogs, D 2, mean of 5 dogs (ND included as BLQ = 0)): 0.268 ng/mL
- Plasma concentrations of ivermectin, Mean ([3]; Cardomec oral 6 μg.kg^−1, fasted dogs, D 3, mean of 5 dogs (ND included as BLQ = 0)): 0.173 ng/mL
- Plasma concentrations of ivermectin, Mean ([3]; Cardomec oral 6 μg.kg^−1, fasted dogs, D 4, mean of 5 dogs (ND, BLQ taken as 0)): 0.108 ng/mL
- Plasma concentrations of ivermectin, Mean ([3]; Cardomec oral 6 μg.kg^−1, fasted dogs, D 5, mean of 5 dogs, one value above the limit of quantification): BLQ* (Below the Limit of Quantification (100 pg.ml^−1))
- Plasma concentrations of ivermectin, Mean ([3]; Cardomec oral 6 μg.kg^−1, fasted dogs, D 7, mean of 5 dogs, one value above the limit of quantification): BLQ* (Below the Limit of Quantification (100 pg.ml^−1))
- Plasma concentrations of ivermectin, Mean ([3]; Cardomec oral 6 μg.kg^−1, fasted dogs, D 9, mean of 5 dogs): BLQ (Below the Limit of Quantification (100 pg.ml^−1))
- Plasma concentrations of ivermectin, Mean ([3]; Cardomec oral 6 μg.kg^−1, fasted dogs, D 14, mean of 5 dogs): BLQ (Below the Limit of Quantification (100 pg.ml^−1))
- Plasma concentrations of ivermectin, Mean ([3]; Cardomec oral 6 μg.kg^−1, fasted dogs, D 21, mean of 5 dogs): BLQ (Below the Limit of Quantification (100 pg.ml^−1))
- AUC(0-t) [3, 9]: 3246 pg·days/mL and 1545 pg·days/mL and 743 pg·days/mL and 1949 pg·days/mL and 187 pg·days/mL
- AUC(0-∞) [3, 9]: 3789 pg·days/mL and 1813 pg·days/mL and 1027 pg·days/mL and 2282 pg·days/mL and 382 pg·days/mL
- Cmax [3, 9]: 2.964 ng/mL and 0.911 ng/mL and 0.557 ng/mL and 1.955 ng/mL and 0.422 ng/mL
- tmax [3, 9]: 3 h (2×) and 12 h (2×) and 4 h
- t½ [3, 9]: 64.5 h and 33.5 h and 37.5 h and 39.2 h and 26.0 h and 64.6 h and 33.6 h and 37.4 h and 39.1 h and 25.9 h
- t½, Mean ([4]; 250 μg.kg ivermectin, harmonic mean): 132 h
- AUC(0-t), Mean ([4]; 250 μg.kg ivermectin, mean): 19218 pg·days/mL
- AUC(0-∞), Mean ([4]; 250 μg.kg ivermectin, mean): 22842 pg·days/mL
- Tlast, Mean ([4]; 250 μg.kg ivermectin, mean): 21 days
- tmax, Mean ([4]; 250 μg.kg ivermectin, mean): 110 h
- Cmax, Mean ([4]; 0.1 ml.kg^−1 (250 μg.kg ivermectin), mean): 1.618 ng/mL
- difference in parameters of absorption (Cmax and AUC) between the two studies ([5]; Example 7 versus Example 6, 250 μg.kg^−1 ivermectin spot-on, dogs): > 2 fold
- plasma concentrations of ivermectin compared with Example 6 ([5]; same formulation (0.25% ivermectin, 10% fipronil), same dose 250 μg.kg^−1, dogs): much lower
- Cmax, Mean ([5]; Group I 100 μg.kg^−1 ivermectin): 0.136 ng/mL
- Cmax, Mean ([5]; Group II 250 μg.kg^−1 ivermectin): 0.508 ng/mL
- Cmax, Mean ([5]; Group III 500 μg.kg^−1 ivermectin): 1.064 ng/mL
- Cmax, Mean ([5]; Group IV 1000 μg.kg^−1 ivermectin): 1.802 ng/mL
- AUC (0-Clast), Mean [5, 10]: 382 pg·days/mL
- Tlast, Mean [5, 10]: 7 days
- tmax, Mean [5, 10]: 7 days
- AUC (0-Clast), Range [5, 11]: [0-775] pg.d.ml^−1
- Cmax, Range [5, 11]: [0-235] pg.ml^−1
- Tlast, Range [5, 11]: [5-9] d
- tmax, Range [5, 11]: [5-9] d
- t½, Mean [5, 12]: 9.8 (#) d
- AUC (0-Clast), Mean [5, 12]: 7808 pg·days/mL
- Tlast, Mean [5, 12]: 28 days
- tmax, Mean ([5]; spot-on with fipronil, dogs, Group II 250 μg.kg^−1 ivermectin, aberant value of 21 days not taken into account): 4.5* d
- AUC (0-Clast), Range [5, 13]: [4949-10019] pg.d.ml^−1
- Cmax, Range [5, 13]: [250-723] pg.ml^−1
- tmax, Range [5, 13]: [4-5] d
- t½, Range [5, 13]: [6.4-35.0] d
- t½, Mean [5, 14]: 11.4 (#) d
- AUC (0-Clast), Mean [5, 14]: 17200 pg·days/mL
- Tlast, Mean [5, 14]: 37 days
- tmax, Mean [5, 14]: 5.7 days
- AUC (0-Clast), Range [5, 15]: [9088-23274] pg.d.ml^−1
- Cmax, Range [5, 15]: [410-572] pg.ml^−1
- tmax, Range [5, 15]: [3-7] d
- t½, Range [5, 15]: [9.0-16.5] d
- t½, Mean [5, 16]: 10.2 (#) d
- AUC (0-Clast), Mean [5, 16]: 29711 pg·days/mL
- Tlast, Mean [5, 16]: 40 days
- tmax, Mean [5, 16]: 3.3 days
- AUC (0-Clast), Range [5, 17]: [16759-39734] pg.d.ml^−1
- Cmax, Range [5, 17]: [1669-1966] pg.ml^−1
- tmax, Range [5, 17]: [2-5] d
- t½, Range [5, 17]: [7.6-12.2] d
- mean AUC(0-Clast) ([5]; spot-on with fipronil, dogs, dose of 250 μg.kg^−1): 7808 pg·days/mL
- effective on gastrointestinal nematodes [6]: effective
